Where two headings read alike, the source gives them in different places.
[1] = CYP2D6 Extensive/Ultra Metabolizer
[2] = Drug Titration Period (first 42 days)
[3] = treatment-emergent AE, total follow-up

## COCCc1ccc(OCC(O)CNC(C)C)cc1 (stereo not drawn) [metoprolol, metoprolol succinate, reference compound]
[1]
  HEADACHE, % of patients: (4.5%)
  HEADACHE, number of patients: 5
  HYPOTENSION, % of patients: (8.1%)
  HYPOTENSION, number of patients: 9
  IMMUNE SYSTEM DISORDERS, % of patients: (0.9%)
  IMMUNE SYSTEM DISORDERS, number of patients: 1
  INFECTIONS AND INFESTATIONS, % of patients: (20.7%)
  INFECTIONS AND INFESTATIONS, number of patients: 23
  INFLUENZA, % of patients: (2.7%)
  INFLUENZA, number of patients: 3
CYP2D6 Poor Metabolizer
  HEADACHE, % of patients: (0.0%)
  HEADACHE, number of patients: 0
  INFECTIONS AND INFESTATIONS, % of patients: (12.5%)
  INFECTIONS AND INFESTATIONS, number of patients: 1
  INFLUENZA, % of patients: (0.0%)
  INFLUENZA, number of patients: 0
  UPPER RESPIRATORY TRACT INFECTION, % of patients: (0.0%)
  UPPER RESPIRATORY TRACT INFECTION, number of patients: 0
[2]
  AC mortality or CV hosp or treatment disc. due to AE, patients N (%): 6 (5%)
  All-cause mortality, patients N (%): 1 (1%)
GENETIC-AF, all randomized patients
  AEs leading to study withdrawal (excluding death): 1.5%
Total Study On-Drug Period
  Adverse event leading to death, patients N (%): 2.3%
  Adverse events leading to study withdrawal (excluding death), patients N (%): 2 (1.5%)
Total Study On-Drug Period, listed as Metoprolol
  Adverse event leading to death, patients N (%): 3 (2.3%)
human, in vivo
  AE SOC frequency: Cardiac Disorders: 26.3%
  AE SOC frequency: Eye Disorders: 3.0%
  AE SOC frequency: Gastrointestinal Disorders: 18.0%
  AE SOC frequency: Hepatobiliary Disorders: 2.3%
  AE SOC frequency: Infections and Infestations: 21.8%
  AE SOC frequency: Investigators: 7.5%
  AE SOC frequency: Metabolism and Nutrition Disorders: 12.0%
  AE SOC frequency: Musculoskeletal and Connective Tissue Disorders: 15.0%
  AE SOC frequency: Neoplasms Benign Malignant and Unspecified: 6.8%
  AE SOC frequency: Renal and Urinary Disorders: 9.8%
  AE SOC frequency: Respiratory, Thoracic and Mediastinal Disorders: 10.5%
  AE frequency: arthralgia: 3.8%
  AE frequency: cardiac failure: 3.8%
  AE frequency: chronic kidney disease: 0.8%
  AE frequency: constipation: 1.5%
  AE frequency: epistaxis: 0.0%
  AE frequency: hematuria: 0.0%
  AE frequency: hypomagnesaemia: 0.0%
  AE frequency: hypotension: 7.5%
  AE frequency: pneumonia: 0.8%
  AE frequency: upper respiratory tract infection: 4.5%
  AEs leading to permanent study drug discontinuation: 8.3%
  AEs: Bradycardia: 12.0%
  AEs: Stroke (99% on OACs): 0.0%
  Adverse event possible/probably related to study drug, patients N (%): 40 (30.1%)
  Adverse events leading to permanent study drug discontinuation, patients N (%): 11 (8.3%)
  Adverse events related to neoplasm, patients N (%): 9 (6.8%)
  Any bradycardia event, % of patients: (12%)
  Any bradycardia event, number of patients: 16
  Any bradycardia, % of patients: (12%)
  Any bradycardia, number of patients: 16
  Any serious adverse event, % of patients: (20%)
  Any serious adverse event, number of patients: 26
  Asymptomatic bradycardia event, % of patients: (8%)
  Asymptomatic bradycardia event, number of patients: 10
  Asymptomatic bradycardia, % of patients: (8%)
  Asymptomatic bradycardia, number of patients: 10
  Bradycardia AEs: 3 (38%)
  Bradycardia event leading to study drug discontinuation, % of patients: (1%)
  Bradycardia event leading to study drug discontinuation, number of patients: 1
  Bradycardia event leading to study drug dose interruption, % of patients: (2%)
  Bradycardia event leading to study drug dose interruption, number of patients: 2
  Bradycardia event leading to study drug dose reduction, % of patients: (8%)
  Bradycardia event leading to study drug dose reduction, number of patients: 11
  CAD, % of patients: (1%)
  CAD, number of patients: 1
  Cardiac AE rate (heart failure or bradycardia events): 50%
  Cardiovascular serious adverse event, % of patients: (10%)
  Cardiovascular serious adverse event, number of patients: 13
  Catheterization, % of patients: (1%)
  Catheterization, number of patients: 1
  EPISTAXIS, % of patients: (0.0%)
  EPISTAXIS, number of patients: 0
  HAEMATURIA, % of patients: (0.0%)
  HAEMATURIA, number of patients: 0
  HYPOMAGNESAEMIA, % of patients: (0.0%)
  HYPOMAGNESAEMIA, number of patients: 0
  Heart block (Mobitz I/II, 2:1, or 3rd degree), % of patients: (0%)
  Heart block (Mobitz I/II, 2:1, or 3rd degree), number of patients: 0
  ICD Implantation, % of patients: (5%)
  ICD Implantation, number of patients: 7
  Incidence of Cr > 3.0, % of patients: (1%)
  Incidence of Cr > 3.0, number of patients: 1
  Incidence of bilirubin > 2.0, % of patients: (2%)
  Incidence of bilirubin > 2.0, number of patients: 2
  Non-CNS Embolism, % of patients: (0%)
  Non-CNS Embolism, number of patients: 0
  Pacemaker Implantation, % of patients: (2%)
  Pacemaker Implantation, number of patients: 3
  SAE SOC frequency: Infections and Infestations: 3.0%
  SAE SOC frequency: Renal and Urinary Disorders: 1.5%
  SAE SOC frequency: Respiratory, Thoracic and Mediastinal Disorders: 1.5%
  SAE frequency: Cardiac Failure: 2.3%
  SAE frequency: Cardiac Failure Congestive: 5.3%
  SAEs: Any cardiovascular event: 9.8%
  Stroke, % of patients: (0%)
  Stroke, number of patients: 0
  Symptomatic bradycardia event, % of patients: (5%)
  Symptomatic bradycardia event, number of patients: 7
  Symptomatic bradycardia, % of patients: (5%)
  Symptomatic bradycardia, number of patients: 7
  TIA, % of patients: (1%)
  TIA, number of patients: 1
  UPPER RESPIRATORY TRACT INFECTION, % of patients: (4.5%)
  UPPER RESPIRATORY TRACT INFECTION, number of patients: 5
human, in vivo, 42 days
  All-cause hospitalization, patients N (%): 9 (7%)
  Any serious adverse event, patients N (%): 10 (8%)
  Asymptomatic bradycardia, patients N (%): 4 (3%)
  Cardiovascular hospitalization, patients N (%): 4 (3%)
  Heart failure hospitalization, patients N (%): 4 (3%)
  Symptomatic bradycardia, patients N (%): 3 (2%)
  Treatment-related cardiovascular serious adverse event, patients N (%): 0 (0%)
  Treatment-related serious adverse event, patients N (%): 0 (0%)
In vivo
  Ablation, % of patients: (14%)
  Ablation, number of patients: 18
  Additional ECV After Successful SR, % of patients: (23%)
  Additional ECV After Successful SR, number of patients: 30
  Anti-Arrhythmic Therapy, % of patients: (33%)
  Anti-Arrhythmic Therapy, number of patients: 44
  Appropriate Firing of on ICD, % of patients: (1%)
  Appropriate Firing of on ICD, number of patients: 1
  Rate Control Therapy, % of patients: (11%)
  Rate Control Therapy, number of patients: 15
  TIA, patients: One
[3]
  HEADACHE, % of patients: (3.8%)
  HEADACHE, number of patients: 5
  INFECTIONS AND INFESTATIONS, % of patients: (21.8%)
  INFECTIONS AND INFESTATIONS, number of patients: 29
  INFLUENZA, % of patients: (2.3%)
  INFLUENZA, number of patients: 3
  UPPER RESPIRATORY TRACT INFECTION, % of patients: (4.5%)
  UPPER RESPIRATORY TRACT INFECTION, number of patients: 6
treatment-emergent serious AE
  INFECTIONS AND INFESTATIONS, % of patients: (3.0%)
  INFECTIONS AND INFESTATIONS, number of patients: 4

— patent US10925856B2, “Methods and compositions involving bucindolol for the treatment of atrial fibrillation” (priority 2018, dated 2021)
